Test system: mutant AR-YFP
Experiment: YFP fluorescence in reporter cell nuclei at saturating target hormone
Type: cell-based
Conditions: absence of urine
Description: For example, YFP fluorescence measured in the cell nuclei of urine-treated reporter cells represents both the effects of target hormone-bound nuclear-translocated mutant AR-YFP, and also the independent effects of urine on the fluorescence properties of YFP. […] Because the effect varies among samples, two aliquots of each sample are required. […] A second sample aliquot is assayed using the methods of the invention. The correction factor is used to subtract the percentage increase from the YFP fluorescence signal measurement of the second aliquot. The corrected YFP fluorescence of the sample then is used to extrapolate the target hormone levels from a standard curve.

## C[C@]12CC[C@H]3[C@@H](CCC4=CC(=O)CC[C@@]43C)[C@@H]1CC[C@@H]2O [testosterone]
  saturating level (YFP fluorescence in nuclei reaches a maximum): about 10^−7 M

Source: US10324099B2, “Ultrasensitive androgen receptor bioassay” (The Regents of the University of California, priority 2014, dated 2019)
